In ChEMBL document CHEMBL1135511, “Structure activity of 3-aryl-1,3-diketo-containing compounds as HIV-1 integrase inhibitors” (J Med Chem, 2002) one finds IC50 data, which are given here for 19 compounds.

A word on the IC50: it is the concentration that gives 50% inhibition. A lower IC50 goes with inhibition by little substance.

The target in assay [1] is T1, Human immunodeficiency virus type 1 integrase (Human immunodeficiency virus 1, UniProt Q7ZJM1).
Assay [2] concerns the target T1, Human immunodeficiency virus type 1 integrase. This is another data set of the same source.
For assay [3] the target is unchanged. Description: Inhibitory effect on 3'-processing(3'-P) of proximal DNA in an extracellular HIV-1 integrase assay in experiment 2.
A short description of assay [4]: Inhibitory concentration by single cycle replication assay using envelope deficient HIV-1. It counts as functional, Homo sapiens.
Assay [5] deals with T1, Human immunodeficiency virus type 1 integrase. Description: Inhibitory effect on strand transfer of proximal DNA into host DNA in an extracellular HIV-1 integrase assay in experiment 2.
Assay [6] has the same target. Description: Inhibitory effect on strand transfer of proximal DNA into host DNA in an extracellular HIV-1 integrase assay in experiment 1.
Assay [7] has the same target. Briefly: Inhibitory effect on 3'-processing(3'-P) of proximal DNA in an extracellular HIV-1 integrase assay in experiment 1.

T1 sequence (Q7ZJM1 whole entry): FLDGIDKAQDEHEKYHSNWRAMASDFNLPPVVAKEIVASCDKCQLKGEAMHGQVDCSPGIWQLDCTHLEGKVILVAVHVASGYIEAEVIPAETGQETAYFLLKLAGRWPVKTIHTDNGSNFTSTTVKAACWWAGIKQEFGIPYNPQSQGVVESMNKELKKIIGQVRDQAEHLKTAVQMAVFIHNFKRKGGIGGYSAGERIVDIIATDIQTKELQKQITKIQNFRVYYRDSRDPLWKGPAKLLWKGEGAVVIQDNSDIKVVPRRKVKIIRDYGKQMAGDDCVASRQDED

For `COc1ccc(Cn2nnnc2C(=O)/C=C(\O)c2cc(OCc3ccccc3)cc(OCc3ccccc3)c2)cc1`, the IC50 in assay [1] and in assay [2] was more than 100 µM in each case.

`CCOC(=O)C(=O)/C=C(\O)c1c[nH]c2ccc(Cl)cc12`: the IC50 is 6.9 µM in assay [1] and more than 100 µM in assay [2].

For the compound `COc1cc(Cn2nnnc2C(=O)/C=C(\O)c2c[nH]c3ccccc23)cc(OC)c1`, the IC50 in assay [1] and in assay [2] was more than 100 µM each time.

In the case of `O=C(O)C(=O)/C=C(\O)c1cccc(OCc2ccccc2)c1`, the IC50 in assay [3] worked out at 100 µM; in assay [1], 0.35 µM; in assay [4], 0.6 µM.

On to `O=C(O)C(=O)/C=C(\O)c1ccc(Oc2ccccc2)cc1`, for which the IC50 in assay [5] was 15 µM; in assay [2] it was more than 100 µM; in assay [6], 7.8 µM.

As for `O=C(O)C(=O)/C=C(\O)c1cccc(/C(O)=C/C(=O)C(=O)O)c1`, the results for the IC50 in assay [1] and in assay [2] were 1.83 µM and 7.8 µM, respectively.

In turn, `O=C(O)C(=O)/C=C(\O)c1c[nH]c2ccc(Cl)cc12` had an IC50 in assay [1] of 0.52 µM.

As for `O=C(O)C(=O)/C=C(\O)c1ccc(/C(O)=C/C(=O)C(=O)O)cc1`, the IC50 in assay [3] stood at 7.5 µM; in assay [7], 7.2 µM; in assay [1], 1.28 µM.

`COc1ccc(Cn2nnnc2C(=O)/C=C(\O)c2c[nH]c3ccccc23)cc1`: the IC50 in assay [1] and in assay [2] was more than 100 µM throughout.

In the case of `O=C(O)C(=O)/C=C(\O)c1cccc(Br)c1`, the IC50 in assay [5] was 3 µM; in assay [2], more than 100 µM; in assay [6] it was 2 µM.

Take `O=C(O)C(=O)/C=C(\O)c1cc(OCc2ccccc2)cc(OCc2ccccc2)c1`: the IC50 in assay [1] is 0.48 µM; in assay [4], 2.3 µM; in assay [2] it was more than 1000 µM.

Take `O=C(O)C(=O)/C=C(\O)c1cccc(NC(=O)c2ccccc2)c1`: the IC50 in assay [1] is 35 µM; in assay [2], more than 100 µM.

In the case of `O=C(O)C(=O)/C=C(\O)c1c[nH]c2ccccc12`, the IC50 in assay [1] is 1.43 µM; in assay [2], more than 100 µM.

`COc1ccc(Cn2nnnc2C(=O)/C=C(\O)c2c[nH]c3ccc(Cl)cc23)cc1`: the figures for the IC50 in assay [1] and in assay [2] were 34 µM and more than 100 µM, respectively.

As for `O=C(CC(=O)c1c[nH]c2ccccc12)c1nnn[nH]1`, the IC50 was 2 µM in assay [5], more than 100 µM in assay [2] and 1.9 µM in assay [6].

For `O=C(CC(=O)c1c[nH]c2ccc(F)cc12)c1nnn[nH]1`, the values for the half-maximal inhibitory concentration (IC50) in assay [1] and in assay [2] were 1.8 µM and 79 µM, respectively.

With `O=C(O)c1ccc2[nH]cc(C(=O)CC(=O)c3nnn[nH]3)c2c1`, the IC50 in assay [1] and in assay [2] was 40 µM throughout.

`O=C(O)C(=O)/C=C(\O)c1ccnc2ccccc12`: the IC50 in assay [1] and in assay [2] was more than 100 µM in each case.

As for `O=C(O)C(=O)/C=C(\O)c1cc(/C(O)=C/C(=O)C(=O)O)c2ccccc2n1`, the IC50 in assay [1] is 6.5 µM; in assay [2], 82 µM.
